Patent US11414431B2, “Substituted pyrazolo[1,5-a]pyrimidines as TYK2 inhibitors” (Nimbus Lakshmi, Inc., priority 2018, dated 2022)

System: IL-12 induced STAT4 phosphorlyation mediated by TYK2/JAK2
Assay: IL-12 Induced pSTAT4 in Human PBMC
Assay type: cell-based
Settings: 1.7 ng/mL IL-12 for 30 minutes
Protocol: Human PBMC were isolated from buffy coat and are stored frozen for assays as needed. […] 15 μL of compound or DMSO was added to the well at the desired concentrations and incubated at 1 hr at 37° C. 15 μL of stimulus (final concentration of 1.7 ng/mL IL-12) was added for 30 minutes prior to pSTAT4 and total STAT4 analysis using cell lysates prepared and analyzed by MSD reagents as per manufacturer protocol. The final DMSO concentration of compound in the assay was 0.1%.
The IL-12 induced pSTAT4 assay evaluates the inhibition of IL-12 induced STAT4 phosphorlyation mediated by TYK2/JAK2 (heterpdimeric complex).

| Structure (SMILES) | IC50 [µM] | IC50 (0.5 h) [µM] |
| --- | --- | --- |
| CNc1cc(-c2cn([C@@H]3CC(=O)N(C)C3)c3ncccc23)nc2c(C(=O)N[C@H]3CC[C@@H]3OC)cnn12 [Compound I-1022] | 0.1 to 0.5 |  |
| CNc1cc(Nc2cccn(C(C)C)c2=O)nc2c(C(=O)NC3CC[C@]3(C)O)cnn12 (some centres unmarked) [Compound I-339] | < 0.1 |  |
| CNc1cc(-c2cn([C@H]3CCC4(C3)OCCO4)c3ncccc23)nc2c(C(=O)NC3CC[C@@H]3OC)cnn12 (some centres unmarked) [Compound I-671] | < 0.1 |  |
| CNc1cc(Nc2cccn([C@H]3CCCC[C@H]3O)c2=O)nc2c(C(=O)NC3CC[C@]3(C)OC)cnn12 (some centres unmarked) [Compound I-423] | < 0.1 |  |
| CNc1cc(Nc2cccn([C@H]3C[C@@H]3F)c2=O)nc2c(C(=O)NC3CCC3(F)F)cnn12 (some centres unmarked) [Compound I-277] | < 0.1 |  |
| CNc1cc(-c2cnc3n([C@@H]4COC[C@H]4O)cccc2-3)nc2c(C(=O)NC3CC[C@@H]3F)cnn12 (some centres unmarked) [Compound I-827] | < 0.1 |  |
| CNc1cc(Nc2cccn([C@H]3CCCOC3)c2=O)nc2c(C(=O)NC3CC[C@@H]3F)cnn12 (some centres unmarked) [Compound I-197] | < 0.1 |  |
| CNc1cc(-c2cn([C@@H]3COC[C@H]3O)c3ncccc23)nc2c(C(=O)N[C@H]3CCC3(F)F)cnn12 [Compound I-693] | < 0.1 |  |
| CNc1cc(Nc2cccn([C@H]3CCCC[C@H]3O)c2=O)nc2c(C(=O)N[C@H]3CC[C@]3(C)OC)cnn12 [Compound I-424] | < 0.1 |  |
| CNc1cc(-c2cn([C@@H]3COC[C@H]3OC)c3ncccc23)nc2c(C(=O)NC3CC[C@@H]3OC)cnn12 (some centres unmarked) [Compound I-636] | < 0.1 |  |
| CNc1cc(-c2cnc3n([C@H]4CN(C)C[C@@H]4OC)cccc2-3)nc2c(C(=O)N[C@H]3CC[C@@H]3OC)cnn12 [Compound I-947] | < 0.1 |  |
| CNc1cc(-c2cn([C@H]3CN(C)C[C@@H]3OC)c3ncccc23)nc2c(C(=O)N[C@H]3CC[C@@H]3OC)cnn12 [Compound I-649] | < 0.1 |  |
| CNc1cc(Nc2cccn([C@@H]3CCOC[C@@H]3OC)c2=O)nc2c(C(=O)N[C@@H]3CCC3(F)F)cnn12 [Compound I-338] | < 0.1 |  |
| CNc1cc(-c2cn([C@@H]3CCOC[C@@H]3F)c3ncccc23)nc2c(C(=O)NC3CC[C@H]3O)cnn12 (some centres unmarked) [Compound I-588] | 0.1 to 0.5 |  |
| CNc1cc(Nc2cccn([C@@H]3CCC[C@](C)(OC)C3)c2=O)nc2c(C(=O)NC3CC3)cnn12 [Compound I-124] | < 0.1 |  |
| CNc1cc(-c2cn(C(C)C)c3nnccc23)nc2c(C(=O)NC3CC[C@@H]3OC)cnn12 (some centres unmarked) [Compound I-993] | < 0.1 |  |
| CNc1cc(-c2cn([C@H]3CCOC[C@H]3OC)c3ncccc23)nc2c(C(=O)N[C@H]3CC[C@@H]3F)cnn12 [Compound I-796] | < 0.1 |  |
| CNc1cc(Nc2cccn([C@@H]3CCCC[C@@H]3O)c2=O)nc2c(C(=O)N[C@@H]3CC[C@H]3F)cnn12 [Compound I-211] | < 0.1 |  |
| CNc1cc(-c2cn([C@H]3CCOC3)c3ncccc23)nc2c(C(=O)N[C@H]3CC[C@@H]3OC)cnn12 [Compound I-613] | < 0.1 |  |
| CNc1cc(Nc2cccn([C@H]3C[C@H](F)C3)c2=O)nc2c(C(=O)NC3CC[C@H]3O)cnn12 (stereo partly drawn) [Compound I-11, 5-((1-((1r,3S)-3-Fluorocyclobutyl)-2-oxo-1,2-dihydropyridin-3-yl)amino)-N-(2-hydroxycyclobutyl)-7-(methylamino)pyrazolo[1,5-a]pyrimidine-3-carboxamide] |  | 0.1 to 0.5 |
| CNc1cc(-c2cn([C@H]3C[C@@H](O)C3)c3ncccc23)nc2c(C(=O)NC3CC[C@@H]3F)cnn12 (some centres unmarked) [Compound I-510] | < 0.1 |  |
| CNc1cc(Nc2cccn([C@H]3C[C@H](F)C3)c2=O)nc2c(C(=O)NC3CC[C@@H]3F)cnn12 (some centres unmarked) [Compound I-164] | < 0.1 |  |
| CNc1cc(-c2cn([C@@H]3COC[C@H]3OC)c3ccccc23)nc2c(C(=O)N[C@H]3CC[C@H]3O)cnn12 [Compound I-787] | < 0.1 |  |
| CNc1cc(-c2cn([C@@H]3COC[C@@H]3F)c3ncccc23)nc2c(C(=O)N[C@H]3CC[C@H]3O)cnn12 [Compound I-571] | < 0.1 |  |
| CNc1cc(Nc2cccn([C@H]3C[C@@H]3F)c2=O)nc2c(C(=O)N[C@@H]3C[C@H]3OC)cnn12 [Compound I-133] | < 0.1 |  |
| CNc1cc(Nc2cccn([C@@H]3CCCOC3)c2=O)nc2c(C(=O)NC3CC[C@@H]3F)cnn12 (some centres unmarked) [Compound I-194] | < 0.1 |  |
| CNc1cc(Nc2cccn([C@H]3C[C@H](F)C3)c2=O)nc2c(C(=O)N[C@@H]3CC[C@H]3OC)cnn12 [Compound I-57, 5-((1-((1r,3R)-3-Fluorocyclobutyl)-2-oxo-1,2-dihydropyridin-3-yl)amino)-N-((1R,2R)-2-methoxycyclobutyl)-7-(methylamino)pyrazolo[1,5-a]pyrimidine-3-carboxamide] | < 0.1 |  |

| Structure (SMILES) | IC50 [µM] | IC50 (0.5 h) [µM] |
| --- | --- | --- |
| CNc1cc(Nc2cccn([C@H]3CCC[C@@H](C#N)C3)c2=O)nc2c(C(=O)NC3CC[C@@H]3OC)cnn12 (stereo partly drawn) [Compound I-114, 5-((1-((1S,3R)-3-Cyanocyclohexyl)-2-oxo-1,2-dihydropyridin-3-yl)amino)-N-((trans-1,2)-2-methoxycyclobutyl)-7-(methylamino)pyrazolo[1,5-a]pyrimidine-3-carboxamide] |  | < 0.1 |
| CNc1cc(Nc2cccn([C@H]3CC[C@H](OC)CC3)c2=O)nc2c(C(=O)N[C@H]3CC[C@@H]3F)cnn12 [Compound I-225] | < 0.1 |  |
| O=C(NC1CCC1(F)F)c1cnn2c3c(c(-c4cn([C@H]5C[C@H](O)C5)c5ncccc45)nc12)OCCN3 (stereo partly drawn) [Compound I-775, N-(2,2-Difluorocyclobutyl)-5-(1-((1r,3S)-3-hydroxycyclobutyl)-1H-pyrrolo[2,3-b]pyridin-3-yl)-2,3-dihydro-1H-pyrazolo[5′,1′:2,3]pyrimido [5,4-b][1,4]oxazine-7-carboxamide] |  | < 0.1 |
| CNc1cc(Nc2cccn([C@H]3CC[C@H](OC)CC3)c2=O)nc2c(C(=O)NC3CC[C@@H]3F)cnn12 (some centres unmarked) [Compound I-224] | < 0.1 |  |
| CNc1cc(-c2cn(CC(=O)N3CCC3)c3ncccc23)nc2c(C(=O)NC3CC[C@@H]3OC)cnn12 (stereo in doubt) [Compound I-928, 5-(1-(2-(azetidin-1-yl)-2-oxoethyl)-1H-pyrrolo[2,3-b]pyridin-3-yl)-N-(2-methoxycyclobutyl)-7-(methylamino)pyrazolo[1,5-a]pyrimidine-3-carboxamide] |  | 0.1 to 0.5 |
| CNc1cc(-c2cn(C3COC3)c3ncccc23)nc2c(C(=O)N[C@@H]3CCC3(F)F)cnn12 [Compound I-675] | < 0.1 |  |
| CNc1cc(-c2cn([C@H]3CCOC[C@H]3OC)c3ncccc23)nc2c(C(=O)N[C@H]3CC[C@@H]3OC)cnn12 [Compound I-666] | < 0.1 |  |
| CNc1cc(-c2cn([C@H]3COC[C@@H]3OC)c3ccccc23)nc2c(C(=O)N[C@H]3CC[C@H]3O)cnn12 [Compound I-790] | < 0.1 |  |
| CNc1cc(-c2cn([C@H]3CCOC[C@H]3OC)c3ncccc23)nc2c(C(=O)N[C@@H]3CCC3(F)F)cnn12 [Compound I-811] | < 0.1 |  |
| CNc1cc(-c2cnc3n([C@@H]4COC[C@H]4OC)cccc2-3)nc2c(C(=O)N[C@@H]3CC[C@@H]3O)cnn12 [Compound I-867] | 0.1 to 0.5 |  |
| CNc1cc(-c2cn([C@H]3CCOC[C@@H]3OC)c3ncccc23)nc2c(C(=O)N[C@H]3CC[C@@H]3OC)cnn12 [Compound I-663] | < 0.1 |  |
| CNc1cc(-c2cnc3n([C@@H]4CCOC4)cccc2-3)nc2c(C(=O)N[C@H]3CC[C@@H]3OC)cnn12 [Compound I-1004] | < 0.1 |  |
| CNc1cc(-c2cn([C@H]3CC(=O)N(C4CCOCC4)C3)c3ncccc23)nc2c(C(=O)N[C@H]3CC[C@@H]3OC)cnn12 [Compound I-1030] | 0.1 to 0.5 |  |
| CNc1cc(Nc2cccn([C@H]3C[C@H](OC)C3)c2=O)nc2c(C(=O)NC3CC[C@@H]3F)cnn12 (mixture of isomers) [Compound I-176] | < 0.1 |  |
| CNc1cc(Nc2cccn([C@H]3[C@@H]4COC[C@@H]43)c2=O)nc2c(C(=O)NC3CCC3(F)F)cnn12 (some centres unmarked) [Compound I-306] | < 0.1 |  |
| CNc1cc(-c2cnc3n([C@@H]4COC[C@H]4O)cccc2-3)nc2c(C(=O)N[C@H]3CC[C@@H]3F)cnn12 [Compound I-830] | < 0.1 |  |
| CNc1cc(Nc2cccn([C@H]3C[C@H](OC)C3)c2=O)nc2c(C(=O)NC3CCC3(F)F)cnn12 (some centres unmarked) [Compound I-292] | < 0.1 |  |
| CNc1cc(-c2cnc3n([C@@H]4CN(C)C[C@H]4OC)cccc2-3)nc2c(C(=O)N[C@H]3CC[C@@H]3OC)cnn12 [Compound I-944] | < 0.1 |  |
| CNc1cc(-c2cnc3n([C@@H]4CCOC4)cccc2-3)nc2c(C(=O)N[C@@H]3CC[C@H]3OC)cnn12 [Compound I-1005] | 0.1 to 0.5 |  |
| CNc1cc(-c2cn([C@@H]3CC(=O)N(C)C3)c3ncccc23)nc2c(C(=O)NC3CC[C@@H]3OC)cnn12 (stereo partly drawn) [Compound I-1016, N-(2-methoxycyclobutyl)-5-(1-((R)-1-methyl-5-oxopyrrolidin-3-yl)-1H-pyrrolo[2,3-b]pyridin-3-yl)-7-(methylamino)pyrazolo[1,5-a]pyrimidine-3-carboxamide] |  | 0.1 to 0.5 |
| CNc1cc(-c2cn([C@@H]3CCOC[C@H]3F)c3ncccc23)nc2c(C(=O)N[C@H]3COC[C@H]3O)cnn12 [Compound I-937] | 0.1 to 0.5 |  |
| CNc1cc(Nc2cccn([C@H]3C[C@@H](OC)C3)c2=O)nc2c(C(=O)N[C@H]3CCC3(F)F)cnn12 [Compound I-296] | < 0.1 |  |
| CO[C@H]1CC[C@@H]1NC(=O)c1cnn2c(N)cc(-c3cnc4n([C@H]5COC[C@@H]5OC)cccc3-4)nc12 [Compound I-1006] | < 0.1 |  |
| CNc1cc(Nc2cccn(-c3ccc(C)nc3)c2=O)nc2c(C(=O)NC3CCC3(F)F)cnn12 (centres unmarked) [Compound I-324] | < 0.1 |  |
| CNc1cc(-c2cn([C@@H]3CCOC3)c3ncccc23)nc2c(C(=O)NC3CC[C@@H]3OC)cnn12 (some centres unmarked) [Compound I-609] | < 0.1 |  |
| CNc1cc(-c2cn(CC(=O)N3CCCC3)c3ncccc23)nc2c(C(=O)N[C@H]3CC[C@@H]3OC)cnn12 [Compound I-965] | < 0.1 |  |
